{"source": "paper PMC10705919", "about": "(International Journal of Molecular Sciences, 2023)", "target": "T1, TRPV4 (Canis lupus, UniProt A0A8I3PAV3)", "T1 construct": "endogenous channel in MDCK cells", "T1 sequence (A0A8I3PAV3 1-828)": "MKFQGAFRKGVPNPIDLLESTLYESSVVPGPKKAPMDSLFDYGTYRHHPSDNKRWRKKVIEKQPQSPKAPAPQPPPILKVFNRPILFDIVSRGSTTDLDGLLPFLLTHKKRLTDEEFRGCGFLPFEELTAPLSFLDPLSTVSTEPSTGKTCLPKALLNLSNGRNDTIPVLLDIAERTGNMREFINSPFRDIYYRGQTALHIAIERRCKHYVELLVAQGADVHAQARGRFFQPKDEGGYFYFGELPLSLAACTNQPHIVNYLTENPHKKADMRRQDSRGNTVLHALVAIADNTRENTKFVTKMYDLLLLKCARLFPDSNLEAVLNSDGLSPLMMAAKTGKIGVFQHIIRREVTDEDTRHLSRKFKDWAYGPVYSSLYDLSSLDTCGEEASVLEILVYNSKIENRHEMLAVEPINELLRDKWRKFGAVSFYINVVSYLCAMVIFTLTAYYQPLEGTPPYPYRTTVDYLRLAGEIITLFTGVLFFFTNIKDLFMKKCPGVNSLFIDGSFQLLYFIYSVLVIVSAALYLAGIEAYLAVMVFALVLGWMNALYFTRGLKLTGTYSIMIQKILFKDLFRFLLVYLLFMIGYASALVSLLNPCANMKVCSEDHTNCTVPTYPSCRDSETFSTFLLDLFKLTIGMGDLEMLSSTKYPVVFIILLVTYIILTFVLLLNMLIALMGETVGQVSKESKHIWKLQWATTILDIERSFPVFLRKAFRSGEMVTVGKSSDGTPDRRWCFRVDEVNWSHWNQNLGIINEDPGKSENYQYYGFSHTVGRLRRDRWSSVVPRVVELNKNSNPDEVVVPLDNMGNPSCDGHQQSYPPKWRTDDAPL", "assay": "whole-cell patch clamp, block of GSK1016790A-evoked currents in MDCK cells", "format": "cell-based"}
{"smiles": "Cc1c(C(=O)Nc2cccc(C(F)(F)F)c2)cc(-c2ccccc2)n1CCCN1CCOCC1", "note": "[HC, HC-067047]", "values": [{"measurement": "whole-cell patch clamp, block of GSK1016790A-evoked currents in MDCK cells", "value": "the addition of HC significantly decreases the transient enhancement of dIm induced by GSK alone"}]}
